Test systems include MOLT-4 leukemia; HT29 colon; CCRF-CEM leukemia; K-562 leukemia; SK-MEL-28 melanoma; OVCAR-4 ovarian; OVCAR-3 ovarian; NCI-H226 lung; PC-3 prostate; NCI/ADR-RES ovarian.
What all share (assay): NCI tumour cell line growth inhibition, 48 h

The structures appear in SMILES notation.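 All cell lines were grown in 96-well plates and treated with compound for 48 hours. GI50 is the concentration that inhibits growth by half. Definition used: TGI = concentration required for complete inhibition of growth.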 Some results are limits rather than exact numbers.

Take `COC(=O)C1CCC2(CC1)NC(=O)NC2=O` (configuration not stated): the TGI in the test with MOLT-4 leukemia, with HT29 colon, with CCRF-CEM leukemia, in the test with K-562 leukemia, in the test with SK-MEL-28 melanoma and with OVCAR-4 ovarian was above 100 µM each time. Further, the TGI in the test with OVCAR-3 ovarian and with NCI-H226 lung was above 100 µM in each case.

In the case of `NCCN.O=N[O-].O=N[O-].O=N[O-].O=N[O-].[Co+3].[K+]`, the GI50 in the test on MOLT-4 leukemia, in the test with HT29 colon, with CCRF-CEM leukemia, in the test on K-562 leukemia, in the test with SK-MEL-28 melanoma and with OVCAR-4 ovarian was above 100 µM each time. Further, the GI50 in the test with OVCAR-3 ovarian is above 100 µM. The TGI in the test with MOLT-4 leukemia, in the test with HT29 colon, with CCRF-CEM leukemia, in the test on K-562 leukemia, with SK-MEL-28 melanoma and with OVCAR-4 ovarian was above 100 µM each time. Further, in the test with OVCAR-3 ovarian, the TGI was above 100 µM.

As to `CC(=O)OC12CCCCC1C1(CCCC1)NC2=O` (configuration not stated), the TGI in the test on MOLT-4 leukemia, with HT29 colon, in the test on CCRF-CEM leukemia, in the test with K-562 leukemia, in the test on SK-MEL-28 melanoma and with OVCAR-4 ovarian was above 100 µM in each case. The TGI with OVCAR-3 ovarian and in the test on NCI-H226 lung was above 100 µM in each case.

`Cc1nc2cc(NC(=O)CN3CCN(CCN4C(=O)c5cccc6cccc(c56)C4=O)CC3)ccc2s1`: the GI50 with MOLT-4 leukemia is 2.52 µM; in the test with HT29 colon, 3.39 µM; in the test on PC-3 prostate, 4.5 µM; with CCRF-CEM leukemia it was 2.94 µM; in the test with SK-MEL-28 melanoma it was 11.1 µM; with NCI/ADR-RES ovarian, 4.05 µM. Also, the GI50 was 5.33 µM in the test on OVCAR-4 ovarian, 7.91 µM with OVCAR-3 ovarian and 4.67 µM in the test with NCI-H226 lung. Moreover, the TGI in the test on MOLT-4 leukemia is 22.2 µM; in the test on HT29 colon it was 19.6 µM; in the test on PC-3 prostate it was above 100 µM; with CCRF-CEM leukemia, 95.9 µM; with SK-MEL-28 melanoma, 23.1 µM; with NCI/ADR-RES ovarian, 29.5 µM. The TGI is above 100 µM in the test with OVCAR-4 ovarian, 20.7 µM in the test with OVCAR-3 ovarian and 73.9 µM in the test on NCI-H226 lung.

On to `CCOc1ccccc1Nc1nc(C)c(C(=O)CC(=O)C(=O)Nc2ccccc2)s1`, for which the TGI is 78.3 µM with MOLT-4 leukemia; above 100 µM in the test on HT29 colon; above 100 µM in the test with CCRF-CEM leukemia; above 100 µM in the test with K-562 leukemia; above 100 µM in the test with SK-MEL-28 melanoma; above 100 µM in the test with OVCAR-4 ovarian. Moreover, the results for the TGI with OVCAR-3 ovarian and in the test on NCI-H226 lung were 63.3 µM and above 100 µM, respectively.

With `CC(=O)/C=C\C(=O)NNS(=O)(=O)c1ccc(C)cc1`, the TGI in the test with MOLT-4 leukemia, in the test on HT29 colon, in the test on CCRF-CEM leukemia, in the test with K-562 leukemia, in the test with SK-MEL-28 melanoma and with OVCAR-4 ovarian was above 100 µM each time. The TGI in the test on OVCAR-3 ovarian and with NCI-H226 lung was above 100 µM each time.

In the case of `Cc1nn(C(=O)CC(=O)Nc2ccccc2Cl)c(C)c1N=Nc1ccccc1Cl`, the TGI in the test with MOLT-4 leukemia, in the test with HT29 colon, in the test on CCRF-CEM leukemia, in the test with K-562 leukemia, in the test on SK-MEL-28 melanoma and in the test on OVCAR-4 ovarian was above 100 µM throughout. Further, the TGI in the test with OVCAR-3 ovarian was above 100 µM.

Turning to `COc1cc(C2C(C(=O)Nc3ccc(Cl)c(Cl)c3)=C(C)NC(C)=C2C(=O)Nc2ccc(Cl)c(Cl)c2)ccc1O`, the TGI in the test on MOLT-4 leukemia is 26.9 µM; with HT29 colon it was 31.7 µM; in the test with CCRF-CEM leukemia it was 13.5 µM; in the test on K-562 leukemia, 26.2 µM; with SK-MEL-28 melanoma, 27.3 µM; in the test on OVCAR-4 ovarian, 23 µM. The TGI was 27.7 µM with OVCAR-3 ovarian and 40.8 µM with NCI-H226 lung.

Take `O=C1[C@@H]2C3C=CC([C@H]4C(=O)N(CO)C(=O)[C@@H]34)[C@@H]2C(=O)N1CO`: the TGI was above 100 µM with MOLT-4 leukemia; above 100 µM with HT29 colon; 59.3 µM with CCRF-CEM leukemia; above 100 µM in the test with K-562 leukemia; above 100 µM in the test on SK-MEL-28 melanoma; above 100 µM in the test with OVCAR-4 ovarian. Further, the TGI in the test with OVCAR-3 ovarian and with NCI-H226 lung was above 100 µM each time.

For `O=C1c2ccccc2CC1C1(O)C(=O)Nc2c(Cl)cc(Cl)cc21` (configuration not stated), the TGI with MOLT-4 leukemia, with HT29 colon, in the test with CCRF-CEM leukemia, in the test on K-562 leukemia, with SK-MEL-28 melanoma and with OVCAR-4 ovarian was above 100 µM each time. For the same compound, the TGI with OVCAR-3 ovarian and with NCI-H226 lung was above 100 µM each time.

With `Nc1n[nH]c(=O)c2c1c(Br)cn2C1OC(CO)C(O)C1O` (configuration not stated), the TGI with MOLT-4 leukemia was 9.3 µM; in the test on HT29 colon, above 100 µM; in the test with CCRF-CEM leukemia, 19.2 µM; with K-562 leukemia it was above 100 µM; with SK-MEL-28 melanoma it was 26.6 µM; in the test on OVCAR-4 ovarian, 26.3 µM. Besides, the TGI in the test on OVCAR-3 ovarian was above 50.8 µM; with NCI-H226 lung it was 59.3 µM.

With `COc1ccc(/C=C(\NC(=O)c2ccccc2)c2nc3ccccc3[nH]2)cc1`, the TGI with MOLT-4 leukemia was 83.1 µM; with HT29 colon it was above 100 µM; in the test with CCRF-CEM leukemia, above 100 µM; with K-562 leukemia it was above 100 µM; in the test on SK-MEL-28 melanoma it was 37.5 µM; in the test with OVCAR-4 ovarian, above 100 µM. In addition, the TGI in the test with OVCAR-3 ovarian and with NCI-H226 lung was above 100 µM each time.

As to `O=S(O)CCCSSCCCCSSCCCS(=O)O`, the TGI in the test with MOLT-4 leukemia, in the test with HT29 colon, with CCRF-CEM leukemia, in the test with K-562 leukemia, in the test on SK-MEL-28 melanoma and with OVCAR-4 ovarian was above 100 µM each time. In addition, the TGI in the test on OVCAR-3 ovarian is above 100 µM.

Take `O=C1OC2C(O)COC2(OCc2c[nH]c3ccccc23)C1O` (configuration not stated) (tested in a mixture with another compound): the TGI in the test on MOLT-4 leukemia, in the test on HT29 colon, in the test with CCRF-CEM leukemia, with K-562 leukemia, in the test on OVCAR-4 ovarian and in the test on OVCAR-3 ovarian was above 100 µM each time. In addition, in the test on NCI-H226 lung, the TGI was above 100 µM.

In the case of `COC(=O)c1c(OC(=O)c2ccccc2)noc1CC(=O)OC1C=CCCC1` (configuration not stated), the TGI in the test on MOLT-4 leukemia, in the test on CCRF-CEM leukemia, in the test on K-562 leukemia, in the test on SK-MEL-28 melanoma, in the test on OVCAR-4 ovarian and in the test on OVCAR-3 ovarian was above 100 µM each time. Moreover, the TGI with NCI-H226 lung is above 100 µM.

Source of the values: PubChem BioAssay (NCI).
